Read-outs that look alike come from different tables or passages of the source.
Experiments:
[1] = biological target: T1, NLuc (Oplophorus gracilirostris, UniProt Q9GV45, A31E/A60N/A81I/F95D/I117V/K70R/L54V/L99Q/M102K/N193R/P142E/Q151K/Q38R/Q45L/V71I/Y165I); format: biochemical; conditions: - ATP
T1 construct: His tag (inferred from IMAC purification); made in house; host or cells: E. coli
Procedure, shortened: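 Luminescence was read 10 min after Nano-Glo reagent addition. Enzyme was 1 nM NLuc in PBS/0.05% IGEPAL buffer, with or without ATP.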

[2] = biological target: P. pyralis FLuc (Photinus pyralis, UniProt P08659); experiment: FLuc enzymatic luminescence assay, P. pyralis FLuc; format: biochemical; conditions: FLuc enzymatic assay; for IC50: read-out: IC50 or SDR50 (mM) FLuc E
Procedure, shortened: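 Runs with and without 10 µM ATP: compounds were pre-incubated with FLuc (1–10 nM, PBS pH 7.4) at ambient temperature, light-protected, for 30–60 min. Luminescence was imaged 5 min after adding 10 µM D-luciferin (final). Inhibition was scaled between DMSO neutral and no-enzyme controls.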

[3] = biological target: T2, FLuc-C-HiBiT (Photinus pyralis, UniProt P08659); experiment: biochemical; conditions: enzyme activity, 10 uM ATP; read-out: IC50 or SDR50 (mM) / FLuc E
T2 construct: firefly luciferase with C-terminal HiBiT tag, E. coli expressed

[4] = biological target: FLuc-C-NLuc (firefly luciferase) (Photinus pyralis, UniProt P08659, form not given/L550V); experiment: SDR assay, FLuc-C-NLuc; conditions: - ATP
[5] = biological target: FLuc-C-HiBiT (firefly luciferase) (Photinus pyralis, UniProt P08659, form not given/L550V); experiment: SDR assay, FLuc-C-HiBiT; conditions: for % Activity (max response, + ATP) / % Activity (max response, - ATP): SDR max. response, clade S
Sequence of FLuc-C-HiBiT (firefly luciferase) (P08659 2-550 L550V, form open): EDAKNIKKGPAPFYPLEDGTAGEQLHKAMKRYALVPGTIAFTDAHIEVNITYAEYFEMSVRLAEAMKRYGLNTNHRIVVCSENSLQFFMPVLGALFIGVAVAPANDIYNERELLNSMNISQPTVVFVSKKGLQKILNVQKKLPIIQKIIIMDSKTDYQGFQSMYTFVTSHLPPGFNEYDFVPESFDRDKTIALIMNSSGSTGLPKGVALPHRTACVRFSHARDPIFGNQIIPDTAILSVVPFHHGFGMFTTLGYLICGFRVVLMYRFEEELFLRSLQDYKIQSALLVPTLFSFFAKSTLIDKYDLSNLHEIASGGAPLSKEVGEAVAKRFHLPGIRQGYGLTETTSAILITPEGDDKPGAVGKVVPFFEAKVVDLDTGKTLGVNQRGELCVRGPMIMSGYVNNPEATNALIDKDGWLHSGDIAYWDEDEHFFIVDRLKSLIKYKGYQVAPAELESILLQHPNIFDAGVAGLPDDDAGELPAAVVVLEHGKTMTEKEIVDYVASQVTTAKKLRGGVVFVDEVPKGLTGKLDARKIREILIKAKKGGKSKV

T2 sequence (P08659 whole entry, looked up): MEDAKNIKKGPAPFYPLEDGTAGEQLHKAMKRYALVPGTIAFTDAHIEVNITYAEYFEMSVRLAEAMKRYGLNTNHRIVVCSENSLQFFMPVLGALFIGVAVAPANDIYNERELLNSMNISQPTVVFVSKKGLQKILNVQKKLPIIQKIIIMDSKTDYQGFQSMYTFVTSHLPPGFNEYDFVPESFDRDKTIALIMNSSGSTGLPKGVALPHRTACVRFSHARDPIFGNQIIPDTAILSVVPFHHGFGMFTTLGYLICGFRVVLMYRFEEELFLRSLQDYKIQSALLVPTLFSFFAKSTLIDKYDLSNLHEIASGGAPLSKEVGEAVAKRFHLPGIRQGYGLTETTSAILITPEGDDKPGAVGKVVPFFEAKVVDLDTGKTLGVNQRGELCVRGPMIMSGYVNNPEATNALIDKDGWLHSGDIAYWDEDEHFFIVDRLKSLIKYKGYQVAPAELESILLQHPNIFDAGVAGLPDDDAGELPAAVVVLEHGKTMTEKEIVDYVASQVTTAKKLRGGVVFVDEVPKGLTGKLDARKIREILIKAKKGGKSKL
Sequence of P. pyralis FLuc (P08659 whole entry): as the sequence (P08659 whole entry, looked up) above
Sequence of FLuc-C-NLuc (firefly luciferase) (P08659 2-550 L550V, form open): as the sequence (P08659 2-550 L550V, form open) above
T1 sequence (Q9GV45 other isoform, or with tags, fused parts or gaps with the stated changes): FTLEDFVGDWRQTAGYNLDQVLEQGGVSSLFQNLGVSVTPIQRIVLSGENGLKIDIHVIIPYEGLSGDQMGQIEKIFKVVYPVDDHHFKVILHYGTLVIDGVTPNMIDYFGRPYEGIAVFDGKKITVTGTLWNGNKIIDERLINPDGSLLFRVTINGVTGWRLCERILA

| Compound | Efficacy (%) NLuc (- ATP) [1] [%] | Efficacy (%) FLuc E ([2]; Clade S follow-up) [%] | pIC50 or pSDR50 FLuc E ([2]; Clade S follow-up) | IC50 ([2]; Clade S follow-up) [mM] | IC50 [3] [mM] | Efficacy (%) FLuc-C-NLuc SDR (-ATP) [4] [%] | % Activity (max response, + ATP) [5] [%] | % Activity (max response, - ATP) ([5]; - ATP) [%] | pIC50 or pSDR50 FLuc E [2] | IC50 [2] [mM] | pIC50 or pSDR50 NLuc (- ATP) [1] | IC50 ([1]; read-out: IC50 or SDR50 (mM) NLuc (- ATP)) [mM] | pSDR50 (clade S) ([5]; - ATP, dihydro-imidazo-oxazine (clade S)) |
| --- | --- | --- | --- | --- | --- | --- | --- | --- | --- | --- | --- | --- | --- |
| O=C(Nc1cccc(F)c1)C1CCN(C(=O)c2ncn3c2COC(c2ccccc2)C3)CC1 (centres unmarked) [NCGC00449914-01] | 0.00 | -105.74 | 6.21 | 0.00062 | 0.000881 | 0.00 | 387.59 | 0.00 | – | – | – | – | – |
| COc1ccccc1CNC(=O)C1CCN(C(=O)c2ncn3c2COC(c2ccccc2)C3)CC1 (centres unmarked) [NCGC00449776-01] | 0.00 | -78.77 | – | – | 0.00624 | 0.00 | 209.84 | 0.00 | 5.66 | 0.00221 | – | – | – |
| CC(C)c1cccc(NC(=O)C2CCN(C(=O)c3ncn4c3COC(c3ccccc3)C4)CC2)c1 (centres unmarked) [NCGC00449908-01] | 0.00 | -95.10 | 5.26 | 0.00555 | 0.00785 | 0.00 | 304.79 | 0.00 | – | – | – | – | – |
| CC(C)c1ccc(NC(=O)C2CCN(C(=O)c3ncn4c3COC(c3ccccc3)C4)CC2)cc1 (centres unmarked) [NCGC00449909-01] | 0.00 | -93.68 | 5.51 | 0.00312 | 0.00351 | 0.00 | 370.54 | 0.00 | – | – | – | – | – |
| O=C(NCC1CC1)C1CCN(C(=O)c2ncn3c2COC(c2ccccc2)C3)CC1 (centres unmarked) [NCGC00449799-01] | 0.00 | -97.90 | – | – | 0.007 | 0.00 | 355.70 | 0.00 | 5.11 | 0.00784 | – | – | – |
| CC1CCC(NC(=O)C2CCN(C(=O)c3ncn4c3COC(c3ccccc3)C4)CC2)CC1 (centres unmarked) [NCGC00449768-01] | 0.00 | -93.28 | – | – | 0.00248 | 0.00 | 387.83 | 0.00 | 5.71 | 0.00197 | – | – | – |
| COc1ccc(NC(=O)C2CCN(C(=O)c3ncn4c3COC(c3ccccc3)C4)CC2)cc1 (centres unmarked) [NCGC00449910-01] | 0.00 | -79.86 | 5.06 | 0.0088 | 0.00785 | 0.00 | 319.33 | 0.00 | – | – | – | – | – |
| O=C(Nc1ccccc1)C1CCN(C(=O)c2ncn3c2COC(c2ccccc2)C3)CC1 (centres unmarked) [NCGC00449901-01] | 0.00 | -101.51 | 5.86 | 0.0014 | 0.00157 | 0.00 | 354.42 | 0.00 | – | – | – | – | – |
| COc1ccc(NC(=O)C2CCN(C(=O)c3ncn4c3COC(c3ccccc3)C4)CC2)cc1OC (centres unmarked) [NCGC00449911-01] | 11.18 | -91.83 | 5.51 | 0.00312 | 0.00351 | 0.00 | 240.56 | 15.50 | – | – | – | – | – |
| CSc1ccc(CNC(=O)C2CCN(C(=O)c3ncn4c3COC(c3ccccc3)C4)CC2)cc1 (centres unmarked) [NCGC00449782-01] | -35.74 | -89.02 | – | – | 0.00624 | 0.00 | 293.16 | 0.00 | 5.26 | 0.00555 | 4.71 | 0.0197 | – |
| O=C(NCc1ccco1)C1CCN(C(=O)c2ncn3c2COC(c2ccccc2)C3)CC1 (centres unmarked) [NCGC00449791-01] | 0.00 | -97.55 | – | – | 0.00248 | 0.00 | 367.63 | 0.00 | 5.56 | 0.00278 | – | – | – |
| O=C(NCc1ccncc1)C1CCN(C(=O)c2ncn3c2COC(c2ccc(F)cc2)C3)CC1 (centres unmarked) [NCGC00449833-01] | -20.01 | -87.47 | 5.21 | 0.00623 | 0.0111 | 0.00 | 157.03 | 0.00 | – | – | – | – | – |
| CCOc1ccccc1CNC(=O)C1CCN(C(=O)c2ncn3c2COC(c2ccccc2)C3)CC1 (centres unmarked) [NCGC00449779-01] | 0.00 | -109.28 | – | – | 0.00313 | 0.00 | 223.68 | 0.00 | 5.21 | 0.00623 | – | – | – |
| O=C(NCc1ccc2c(c1)OCO2)C1CCN(C(=O)c2ncn3c2COC(c2ccccc2)C3)CC1 (centres unmarked) [NCGC00449781-01] | 0.00 | -80.20 | – | – | 0.007 | 0.00 | 220.59 | 0.00 | 5.51 | 0.00312 | – | – | – |
| Cc1ccc(C2Cn3cnc(C(=O)N4CCC(C(=O)NCc5ccco5)CC4)c3CO2)cc1 (centres unmarked) [NCGC00449893-01] | 0.00 | -75.71 | 5.01 | 0.00988 | 0.00881 | 0.00 | 104.01 | 0.00 | – | – | – | – | – |
| O=C(NCc1ccccc1F)C1CCN(C(=O)c2ncn3c2COC(c2ccccc2)C3)CC1 (centres unmarked) [NCGC00449783-01] | 14.02 | -77.35 | – | – | 0.00351 | 0.00 | 339.74 | 0.00 | 5.41 | 0.00393 | – | – | – |
| CC(NC(=O)C1CCN(C(=O)c2ncn3c2COC(c2ccccc2)C3)CC1)c1ccc(F)cc1 (centres unmarked) [NCGC00449793-01] | 0.00 | -92.83 | – | – | 0.00495 | 0.00 | 272.56 | 0.00 | 5.16 | 0.00699 | – | – | – |
| O=C(NCCc1ccccc1)C1CCN(C(=O)c2ncn3c2COC(c2ccccc2)C3)CC1 (centres unmarked) [NCGC00449794-01] | 0.00 | -92.17 | – | – | 0.00248 | 0.00 | 379.45 | 0.00 | 5.66 | 0.00221 | – | – | – |
| O=C(NCc1ccncc1)C1CCN(C(=O)c2ncn3c2COC(c2ccccc2)C3)CC1 (centres unmarked) [NCGC00449800-01] | 0.00 | -91.84 | – | – | 0.00176 | 0.00 | 375.34 | 0.00 | 6.01 | 0.00099 | – | – | – |
| O=C(Nc1ccc(F)c(Cl)c1)C1CCN(C(=O)c2ncn3c2COC(c2ccccc2)C3)CC1 (centres unmarked) [NCGC00449918-01] | 0.00 | -99.81 | 6.16 | 0.0007 | 0.000989 | 0.00 | 238.83 | 49.33 | – | – | – | – | 4.95 |
| O=C(Nc1ccc(F)c(F)c1)C1CCN(C(=O)c2ncn3c2COC(c2ccccc2)C3)CC1 (centres unmarked) [NCGC00449916-01] | 0.00 | -98.00 | 6.11 | 0.00078 | 0.000989 | 0.00 | 236.10 | 8.48 | – | – | – | – | – |
| O=C(NCCc1cccs1)C1CCN(C(=O)c2ncn3c2COC(c2ccccc2)C3)CC1 (centres unmarked) [NCGC00449796-01] | 0.00 | -97.05 | – | – | 0.00442 | 0.00 | 316.37 | 0.00 | 5.26 | 0.00555 | – | – | – |

— PMC12064818, “A general assay platform to study protein pharmacology using ligand-dependent structural dynamics” (Nature Communications, 2025)
